Reference: US6833443B1, “Gymnemic acid derivatives, process for the preparation thereof and use thereof as medicine” (Guilin Jiqi Pharmaceutical Co., Ltd., priority 1999, dated 2004)

Experiments:
Female SD rats = assay: Effect on increasing blood sugar in rats caused by sucrose; assay type: in vivo, rat; conditions: for Value of blood sugar: dose 100 mg/kg
Description: Female SD rats fasted for 24 hours and were randomly divided into several groups. […] The normal group, control group and blank group were given the same amount of water. The given medicine volume was […], after 30 minutes each group was given saccharose 1/kg(5 ml/kg) except the normal group, and blood was extracted from the eyes of rats after 30, 60 and 120 minutes respectively, the content of glucose in the serum was measured.

normal mice = assay: Effect of compound B on blood sugar in normal mice; assay type: in vivo; conditions: for Value of blood sugar: dose 100 mg/kg
Description: The positive control group orally took tolbutol at 100 mg/kg. The blank control group took orally same distilled water. The volume of medicine given is 20 ml/kg, lasting 14 days. The test drug was administered (provided that they are pre-forbidden to give food 5 hrs before administration) after the days 1, 3, 7, 14 of administration. 3 hrs after administration, blood (10 ul) was taken from the eyepit. The content of dextrose in serum was measured by reagent box.

[1] = test system: Male Kun Ming strain mice; assay: Effect of compound F on blood sugar elevation after oral dextrose; assay type: in vivo; conditions: dose 50 mg/kg oral, 7 days
Description: Effect of compound F on blood sugar elevation in rat.
Male Kun Ming strain mice are divided into randomly experimental groups, and they respectively took orally the compound F at […]. The positive control group took orally glybenclamide 50 mg/kg, and the blank control group and normal control group take orally the same distilled water. The volume of medicine given is 20 ml/kg, lasting 7 days. They are forbidden to give feedstuff 10 hours before the last time of administration. Each group is given 2.5 g/kg (10 ml/kg) dextrose solution except of normal control group. Before and after 30 minute of administration of dextrose, 100 ul of blood was sampled from the eyepit, and the content of dextrose in serum was measured by way of dextrose oxygenation enzyme.

rabbit's blood platelets = assay: Effect of compound F on aggregation of rabbit's blood platelets in vitro; assay type: cell-based
Description: Effect of Compound F on Blood Platelet Aggregation in Rabbit
Take blood from rabbit heart by puncturing, add 3.8% of potassium citrate for anticoagulation (1:9), centrifuge for 15 minutes at 1000 rpm, take the upper layer as blood platelet rich plasma (prp), and then centrifuge for 10 minutes at […], and take supematant as blood platelet poor plasma (ppp). The final concentration of compound F is respectively 250, 500, 1000 μg/ml, and the final concentration is respectively 250, 500, 1000 ug/ml. Add 10 ul of physical brine of aspirin to the positive-control tube to a final concentration of 250 μg/ml, and add 10 μl of physical brine to the control tube […]. Observe the maximal aggregation ratio on PAM-1 type instrument of blood platelet aggregation within 3 minute.

[2] = test system: blood platelet aggregation in rabbits; assay: Effect of compound B on blood platelet aggregation in rabbits in vitro (ADP); assay type: cell-based, rabbit
Description: Blood was taken from rabbit heart by puncture, to which was added 3.8% potassium citrate for anticoagulation (1:9). Certification for 15 minute at 1000 rpm takes the upper layer as rich blood platelet plasma (prp), and then centrifugation for 10 minutes with 4000 rpm takes the supernatant as poor blood platelet plasma (ppp). […] 10 μl physiological brine of aspirin was added to a positive control tube, then it was put into a measuring cell after warming for 2 minutes at 37° C. 10 ul of physiological brine solution of ADP sodium salt was added with stirring. The final concentration is […]. The maximal aggregation ratio on PAM-1 type of blood platelet instrument was observed within 3 minutes.

[H]/N=C(/N)N/C(=N/[H])NCCc1ccccc1 [phenformin] was tested, and the “Effect on the increased value of blood sugar (in words)” value (Female SD rats; compound B 200 mg/kg, performing 100 mg/kg, within 30 minutes) was “reduce the increased value of blood sugar remarkably”, the “Value of blood sugar” value (Female SD rats; 30 minutes after sucrose) was 4.24 ± 0.87 mmol/L and the “Value of blood sugar” value (Female SD rats; 60 minutes after sucrose) was 4.74 ± 0.90 mmol/L. The “Value of blood sugar” value (Female SD rats; 120 minutes after sucrose) was 4.79 ± 1.03 mmol/L.

In the case of CCCCNC(=O)NS(=O)(=O)c1ccc(C)cc1 [tolbutol], the “Effect on blood sugar of normal mice (in words)” value (normal mice; Compound B 50, 100, 200 mg/kg for 14 days, tolbutol from day 3) is reported as “obvious effect for lowering the blood sugar of normal mice”, the “Value of blood sugar” value (normal mice; day 1) is reported as 6.48 ± 1.18 and the “Value of blood sugar” value (normal mice; day 3) is reported as 5.22 ± 0.80. For the same molecule, the “Value of blood sugar” value (normal mice; day 7) was 6.62 ± 0.96 and the “Value of blood sugar” value (normal mice; day 14) was 5.75 ± 1.02.

For COc1ccc(Cl)cc1C(=O)NCCc1ccc(S(=O)(=O)NC(=O)NC2CCCCC2)cc1 [glybenclamide], the “Value of blood sugar” value ([1]; 0 minute (before dextrose)) was 4.48 ± 0.83 and the “Value of blood sugar” value ([1]; 30 minutes after dextrose) was 8.18 ± 1.72.

For CC(=O)Oc1ccccc1C(=O)O [Aspirin, aspirin], the inhibition at 250 µg/mL (rabbit's blood platelets; Oryctolagus cuniculus, Platelet, final concentration 250 μg/ml, read-out: Inhibition rate (%)) was 50.3%, the “Inhibition of aggregation of blood platelet (in words)” value (rabbit's blood platelets; compound F 500, 1000 μg/ml, aspirin 250 μg/ml) was “obviously inhibit the aggregation of blood platelet” and the “Maximal aggregation rate (%)” value (rabbit's blood platelets; final concentration 250 μg/ml, within 3 minute) was 23.7 ± 6.0 %. For the same molecule, the “Inhibition of blood platelet aggregation (in words)” value ([2]; compound B 500, 1000 μg/ml, aspirin 250 μg/ml) was “obviously inhibit blood platelet from aggregating”, the Inhibition ratio ([2]; final concentration 250) was 50.3 and the “Maximal aggregation ratio (%)” value ([2]; final concentration 250 (μg/ml), ADP, within 3 minutes) was 23.7 ± 6.0 %.
